Assay results published in US8562947B2, “Oxidized avidin with high residency time in the treated tissues” (Sigma-Tau Industrie Farmaceutiche Riunite S.p.A., priority 2007, dated 2013).
Several values for one entry are separate records, joined by “and”; a condition that tells them apart may be missing. Equal values may be shown once.

How the values were obtained:
[1] = BiotinDOTA (ST2210) binding capacity by HABA assay; settings: WTavidin value assumed as 100%
[2] = Isothermal Titration Calorimetry of avidin/ST2210 interaction; format: binding; settings: for KA / N (stoichiometry): ITC with ST2210; for association constants (KA): ITC with ST2210, text
[3] = Long term tissue permanence of wild type and oxidized avidins; format: in vivo, Balb/c nu/nu mice; settings: referred to the 1 hour level; treated hind limb
[4] = Thermal stability and conformational changes by circular dichroism spectroscopy (melting curves); format: physicochemical; settings: for thermal denaturation reversibility: heated without biotin; for p (slope of sigmoidal curve) / Tm: without biotin; for Tm: dichroic signal at 225 nm, 25-95° C.
Procedure: Thermal stability and conformational changes were determined by circular dichroism spectroscopy before and after oxidation, with and without 4 equivalents of biotin. Melting curves were recorded by following the decrease of dichroic signal at 225 nm in the temperature range 25-95° C. The point of inflection and slope (p) of sigmoidal curves were calculated by means of Boltzman fitting model of the scientific graphing and data analysis Origin® 7.0 software and represent the point of transition through the denatured condition.
For each specific compound, the thermal stability corresponds to the temperature which matches the point of inflection of the corresponding curve registered in the temperature range 25-95° C.

[5] = parameters: species or system Balb/c nu/nu mice; settings: mouse, in vivo
Procedure: The animal model of intraoperative avidination for radionuclide treatment IART® was set up by performing a surgical cut in one hind limb of a mouse, infiltrating radiolabelled avidin in the surgical margins and surrounding tissues and measuring radioactivity in the treated limb at different time points after administration. In a parallel group of mice, the radioactive avidin was infiltrated to the limb without surgery.
The amount of radioactivity, after 1 and 24 hours from administration was similar in the surgically treated and not surgically treated animals. Therefore, further studies were performed by infiltrating avidin without surgery. […] Labelled avidin was separated from free iodine by chromatography on a PD-10 column (Amersham Biosciences, Uppsala, Sweden) and oxidized as previously described in the Example 1 without any prior HABA protection.
Mice were sacrificed 1, 24 or 48 hours after ^111In-ST2210 administration and the treated and controlateral limbs, kidney, liver and blood samples were collected and counted in a gamma-counter (Camberra Packard, Schwadorf, Austria).

[6] = format: in vivo, Balb/c nu/nu mice; settings: for distribution of 111In-ST2210 in non target organs: mouse, in vivo
Procedure: After 48 hours from injection, the animals received intravenously (i.v.) 5 μg of ^111In-ST2210.
Groups of 5 animals were sacrificed at the indicated time points and radioactivity in the treated limb as well as in other non target organs measured by gamma counter (Camberra Packard, Schwadorf Austria).
One group of animals received a first intravenous dose of 5 μg of cold ST2210 24 hours prior to a second one of 5 μg ^111In-ST2210. The former occurred 24 hours after avidination. The animals were sacrificed 2 hours after i.v. injection of radiolabelled-ST2210 and radioactivity in the treated limb was measured by gamma counter as above.

[7] = mouse, in vivo
Procedure: The injection into brain was performed through the left side of the skull, by using a Hamilton syringe, at a depth of 4-5 mm.

[8] = Permanence in rabbit mammary tissue; format: in vivo, rabbits; settings: for % ID/breast (+/− SD) at 24 h: rabbit mammary tissue; for amount found in the mammary tissue: rabbit, after 24 hours
Procedure: OXavidinHABA was evaluated for its permanence in the mammary tissue in comparison to WTavidin. […] The animals were sacrificed after 24 h from injection and tissue samples of the injected area of about 200 mg were collected and counted in a gamma counter as previously described. The data are the average (+/−SD) of 3 determinations.

[9] = test system: tumoral lesions of the mammary gland of NeuT mice; test: Therapeutic efficacy of pre-targeted brachytherapy in NeuT transgenic mice (whole mount analysis of mammary gland); format: in vivo, Balb-NeuT mice; settings: compared to vehicle or WTavidin-treated breast; 90Y-ST2210 800 μCi
Procedure: Two animals/group were sacrificed 3 hours after administration and both breasts IV and III excised and counted in a gamma counter as above. Non target organs were also collected weighted and counted. Data are expressed as the % ID/g of tissue. The effect of this pre-targeted brachytherapy on the tumoral lesions were evaluated by whole mount analysis of the mammary gland as described previously (De Giovanni C., et al., Cancer Research, 2004, 64, 4001).

[10] = Tissue permanence of wild type, pegylated or oxidized avidins; format: in vivo, C57Bl/6 mice; settings: 24 hours after i.m. injection in hind limb
Procedure: Radioactivity in the treated limb was measured by gamma counter (Camberra Packard, Schwadorf Austria).
Chemically modified avidins were previously described by other groups with the intent of improving the avidin half-life in circulation (Caliceti P., et al., J. Control. Release, 2002, 83, 97; Salmaso S., et al., Int. J. Pharm., 2007, 340, 20). […] After 24 hours from injection, the animals were sacrificed and radioactivity in the treated limb was measured by gamma counter (Camberra Packard, Schwadorf Austria).

[11] = parameters: species or system Balb/c mice; settings: mouse, in vivo
Description: ^125I-OXavidinHABA was saturated in vitro with ST2210, purified from unbound ST2210 by ultrafiltration and intramuscularly injected into one hind limb of Balb/c mice. The same protocol was followed with regard to WTavidin.

[12] = Tissue localization in cryosections of avidinated muscle (immunofluorescence, haematoxylin/eosin); format: in vivo, Balb/c nude mice; settings: 24 hrs from injection
Procedure: OXavidinHABA was evaluated for tissue localization in comparison to WTavidin in cryosections of avidinated tissues after intramuscular injection into one hind limb of Balb/c nude mice (Harlan, Udine Italy). The muscles were excised 24 hrs after treatment and serial cryosections were prepared from each sample. Each slide was stained with haematoxylin/eosin to evaluate the tissue morphology or incubated with a mouse anti avidin antibody (A5680, Sigma Aldrich, Italy) followed by anti mouse Alexa fluor 488 (Invitrogen, Milan Italy). Finally, slides were mounted with coverslips and observed under microscope.

Question: With “OXavidin 1 mM NaIO4: avidin oxidized with 1 mM NaIO4 without HABA” as the substance, how does the “BiotinDOTA binding % ± SD” value [1] read?
Answer: 77.2 ± 0.9%

Question: With “OXavidin 5 mM NaIO4: avidin oxidized with 5 mM NaIO4 without HABA” as the substance, how does the “BiotinDOTA binding % ± SD” value [1] read?
Answer: 55.7 ± 2.2%

Question: Which “BiotinDOTA binding % ± SD” value [1] does the source give for “OXavidin 10 mM NaIO4: avidin oxidized with 10 mM NaIO4 without HABA” here?
Answer: 50.9% and 50.9 ± 2.4%

Question: With “OXavidin 20 mM NaIO4: avidin oxidized with 20 mM NaIO4 without HABA” as the substance, how does the KA [2] read?
Answer: 645000 ± 56900 M⁻¹

Question: And the “N (stoichiometry)” value [2]?
Answer: 1.2 ± 0.012

Question: And the “BiotinDOTA binding % ± SD” value [1]?
Answer: 49.1% and 49.1 ± 2.1%

Question: For “OXavidin 40 mM NaIO4: avidin oxidized with 40 mM NaIO4 without HABA”, which “BiotinDOTA binding % ± SD” value [1] is on record?
Answer: 44.5 ± 0.9%

Question: What does the source list for “OXavidin: avidin oxidized with sodium periodate without prior HABA protection; NaIO4 concentration not stated at these places”?
Answer: stoichiometry of interaction [2]: 1.2 molecules of ST2210 per molecule; KA [2]: 645000 M⁻¹; tissue half life [3]: about 2 weeks; thermal denaturation reversibility [4]: irreversible; p (slope of sigmoidal curve) [4]: 8.9 and 8.9 ± 0.1; Tm [4]: 74.3 °C and 74.3 ± 0.1 °C; amount in the treated limb compared to native avidin [5]: more than double; distribution in the non target organs (blood, kidney, liver) [5]: lower distribution

Question: With “OXavidinHABA 1 mM NaIO4: avidin oxidized with 1 mM NaIO4 in presence of 1 mM HABA” as the substance, how does the KA [2] read?
Answer: 4.58e+06 ± 249000 M⁻¹

Question: And the “N (stoichiometry)” value [2]?
Answer: 2.5 ± 0.008

Question: What about the “BiotinDOTA binding % ± SD” value [1] of the same substance?
Answer: 99.0 ± 0.2%

Question: With “OXavidinHABA 5 mM NaIO4: avidin oxidized with 5 mM NaIO4 in presence of 1 mM HABA” as the substance, how does the KA [2] read?
Answer: 5.42e+06 ± 590000 M⁻¹

Question: What about the “N (stoichiometry)” value [2] of the same substance?
Answer: 1.9 ± 0.012

Question: What about the “BiotinDOTA binding % ± SD” value [1] of the same substance?
Answer: 95.0 ± 1.7%

Question: For “OXavidinHABA 10 mM NaIO4: avidin oxidized with 10 mM NaIO4 in presence of 1 mM HABA”, which KA [2] is on record?
Answer: 3.34e+06 ± 212000 M⁻¹

Question: And the “N (stoichiometry)” value [2]?
Answer: 1.7 ± 0.008

Question: And the “BiotinDOTA binding % ± SD” value [1]?
Answer: 86.3%

Question: What about the “BiotinDOTA binding % ± SD” value ([1]; listed as OXavidinHABA 10 mM NaIO4 + 1 mM HABA) of the same substance?
Answer: 86.3 ± 1.6 %

Question: With “OXavidinHABA 20 mM NaIO4: avidin oxidized with 20 mM NaIO4 in presence of 1 mM HABA” as the substance, how does the KA [2] read?
Answer: 2.5e+06 ± 132000 M⁻¹

Question: And the “N (stoichiometry)” value [2]?
Answer: 1.5 ± 0.007

Question: What about the “BiotinDOTA binding % ± SD” value [1] of the same substance?
Answer: 81.4%

Question: And the “BiotinDOTA binding % ± SD” value ([1]; listed as OXavidinHABA 20 mM NaIO4 + 1 mM HABA)?
Answer: 81.4 ± 1.0 %

Question: With “OXavidinHABA 40 mM NaIO4 + 1 mM HABA: avidin oxidized with 40 mM NaIO4 in presence of 1 mM HABA” as the substance, how does the “BiotinDOTA binding % ± SD” value [1] read?
Answer: 73.0 ± 0.6%

Question: Which “specific captation of 111In-ST2210 in treated tissue compared with WTavidin” value ([6]; 2 hours from i.v. injection, 48 hours after avidination) does the source give for “OXavidinHABA: HABA-saturated avidin oxidized with sodium periodate; NaIO4 concentration not stated at these places” here?
Answer: much higher

Question: And the “captation of second dose of 111In-ST2210 in treated limb” value ([6]; after a first dose of cold ST2210 24 hours before)?
Answer: comparable to that obtained with the single dose

Question: And the “distribution of 111In-ST2210 in non target organs” value [6]?
Answer: similar

Question: And the “residence in the brain” value [7]?
Answer: about 12.65±6.59 % ID/100 mg of tissue

Question: What about the stoichiometry of interaction [2] of the same substance?
Answer: 1.7 molecules of ST2210 per molecule

Question: What about the “association constants (KA)” value [2] of the same substance?
Answer: 2.5e+06 M⁻¹

Question: And the “% ID/breast (+/− SD) at 24 h” value [8]?
Answer: 65.8 (0.08) % ID/breast

Question: And the “amount found in the mammary tissue” value [8]?
Answer: 65.8 % ID

Question: What about the “effect on cancer lesions of the mammary gland” value [9] of the same substance?
Answer: significant reduction of cancer lesions

Question: And the tissue half life [3]?
Answer: about 2 weeks

Question: What about the “tissue permanence compared to WTavidin” value [10] of the same substance?
Answer: increase of tissue permanence

Question: What about the “amount in the treated limb” value [11] of the same substance?
Answer: 17 % ID/100 mg

Question: And the thermal denaturation reversibility [4]?
Answer: irreversible

Question: And the “p (slope of sigmoidal curve)” value [4]?
Answer: 11.2 and 11.2 ± 0.4

Question: And the Tm [4]?
Answer: 78.1 °C and 78.1 ± 0.3 °C

Question: And the “haematoxylin/eosin staining of muscle” value [12]?
Answer: no histological abnormalities

Question: With “PEGavidin: PEG-conjugated avidin prepared according to Caliceti [reference compound]” as the substance, how does the “tissue permanence compared to WTavidin” value [10] read?
Answer: did not affect the tissue permanence

Question: For “WTavidin: wild type avidin, glycoprotein of about 68 kDa present in egg white, high affinity for biotin [reference compound]”, which “distribution of 111In-ST2210 in non target organs” value [6] is on record?
Answer: similar

Question: What about the stoichiometry of interaction [2] of the same substance?
Answer: 3.0 molecules of ST2210 per molecule

Question: And the KA [2]?
Answer: 3.45e+06 ± 307000 M⁻¹

Question: What about the “N (stoichiometry)” value [2] of the same substance?
Answer: 3.0 ± 0.016

Question: And the “association constants (KA)” value [2]?
Answer: 3.45e+06 M⁻¹

Question: What about the “% ID/breast (+/− SD) at 24 h” value [8] of the same substance?
Answer: 8.5 (1.13) % ID/breast

Question: And the “amount found in the mammary tissue” value [8]?
Answer: 8.5 % ID

Question: And the tissue half life [3]?
Answer: 2 h

Question: And the “BiotinDOTA binding % ± SD” value [1]?
Answer: 100^@ %

Question: And the “amount in the treated limb” value [11]?
Answer: < 0.5 % ID/100 mg

Question: What about the “p (slope of sigmoidal curve)” value [4] of the same substance?
Answer: 14.7

Question: What about the Tm [4] of the same substance?
Answer: 79.0 °C

Question: What about the Tm ([4]; listed as Avidin) of the same substance?
Answer: 79.0 ± 0.1 °C

Question: And the Tm ([4]; listed as avidin)?
Answer: 79.0 °C

Question: What about the “p (slope of sigmoidal curve)” value ([4]; listed as Avidin) of the same substance?
Answer: 14.7 ± 0.3

Question: And the “p (slope of sigmoidal curve)” value ([4]; listed as avidin)?
Answer: 14.7

Question: What about the “distribution in the non target organs (blood, kidney, liver)” value [5] of the same substance?
Answer: higher distribution

Question: What about the “haematoxylin/eosin staining of muscle” value [12] of the same substance?
Answer: no histological abnormalities
